The values below come from patent US5496546A, “Compositions and methods of application of reactive antiviral polyadenylic acid derivatives” (priority 1994, dated 1996).

The target in assay [1] is T1, HIV-1181c RT (Nevirapine-resistant mutant) (Human immunodeficiency virus type 1 group M subtype B, UniProt P04585, Y768C).
T1 construct: HIV-1181c RT (Nevirapine-resistant mutant)
Kind of assay: Inhibition of different HIV RTs, poly C-[dG]12-18 template. The class given is biochemical, HIV-1. The note with it: poly C-[dG]12-18, [^3 H]dGTP; approximate.

The target of assay [2] is HIV-141,215 RT (AZT-resistant mutant, Thr 215→Tyr, Met 41→Leu) (Human immunodeficiency virus type 1 group M subtype B, UniProt P04585, M628L/T802Y). The assay is described as above. The class given is biochemical, HIV-1. The note with it: poly C-[dG]12-18, [^3 H]dGTP; approximate.
In a further assay the target is T2, HIV-1 RT (wild type) (Human immunodeficiency virus type 1 group M subtype B, UniProt P04585).
T2 construct: HIV-1 RT (wild type)
Described as above. It is filed as biochemical. To be noted: poly C-[dG]12-18, [^3 H]dGTP; approximate.

The target in a further assay is T3, HIV-2 (wild type) (Human immunodeficiency virus type 2 subtype A, UniProt P04584).
T3 construct: with the RT from four different strains of the human virus: HIV-1 RT (wild type), HIV-2 (wild type)
T3 sequence (P04584 613-1171 limits assumed): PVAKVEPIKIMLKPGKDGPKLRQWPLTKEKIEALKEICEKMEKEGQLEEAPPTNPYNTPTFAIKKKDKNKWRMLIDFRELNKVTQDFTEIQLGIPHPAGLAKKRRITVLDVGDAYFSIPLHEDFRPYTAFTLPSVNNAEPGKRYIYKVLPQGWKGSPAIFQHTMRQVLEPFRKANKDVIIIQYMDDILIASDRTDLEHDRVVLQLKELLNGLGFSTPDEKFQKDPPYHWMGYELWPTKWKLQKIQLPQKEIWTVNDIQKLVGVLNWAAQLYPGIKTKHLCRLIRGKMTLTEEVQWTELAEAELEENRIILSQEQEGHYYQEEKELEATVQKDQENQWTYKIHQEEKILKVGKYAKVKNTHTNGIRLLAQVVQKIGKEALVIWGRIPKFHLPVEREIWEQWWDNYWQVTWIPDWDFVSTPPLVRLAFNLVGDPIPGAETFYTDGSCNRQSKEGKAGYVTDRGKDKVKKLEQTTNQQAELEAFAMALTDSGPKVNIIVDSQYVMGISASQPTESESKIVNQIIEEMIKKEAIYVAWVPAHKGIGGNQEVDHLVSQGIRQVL
T3 sequence (P04584 613-1052 partner limits assumed): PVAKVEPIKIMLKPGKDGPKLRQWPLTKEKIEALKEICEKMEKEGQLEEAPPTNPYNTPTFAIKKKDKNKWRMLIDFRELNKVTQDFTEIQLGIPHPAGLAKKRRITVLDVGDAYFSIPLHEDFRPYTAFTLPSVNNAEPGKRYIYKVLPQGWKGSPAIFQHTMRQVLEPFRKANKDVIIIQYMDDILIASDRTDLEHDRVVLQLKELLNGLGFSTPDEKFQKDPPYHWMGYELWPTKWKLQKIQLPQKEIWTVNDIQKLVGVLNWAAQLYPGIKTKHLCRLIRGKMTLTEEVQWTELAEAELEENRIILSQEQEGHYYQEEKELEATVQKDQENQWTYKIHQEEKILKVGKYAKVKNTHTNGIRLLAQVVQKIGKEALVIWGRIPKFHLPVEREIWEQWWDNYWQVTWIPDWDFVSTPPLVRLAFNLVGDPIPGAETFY
The assay is described as above. The class given is biochemical. To be noted: poly C-[dG]12-18, [^3 H]dGTP; approximate.

The target of another assay is T4, HIV RT (Human immunodeficiency virus type 1 group M subtype B, UniProt P04585).
T4 construct: Reverse transcriptase samples from HIV (HIV RT)
Kind of assay: Inhibition of viral reverse transcriptase in solution, HIV RT. It is filed as biochemical. On the procedure: Reverse transcriptase samples from HIV (HIV RT) and from Moloney murine leukemia virus (MLV RT) and from avian myeloblastosis virus (AMV RT) were separately incubated with FDNP-poly[A] at 25° C. in a Tris-HCl buffer (0.1M, pH 8.2) containing 1 mM MgCl2 and 125 mM KCl and measured for RT activity. In each experiment, the selected enzyme was incubated for 10 minutes at 25° C. in an incubation mixture containing the potassium salt of the inhibitor at a given concentration. After ten minutes the incubated mixture was rapidly injected into an assay solution and further incubated for 10 min at 37° C., then precipitated with trichloroacetic acid, washed, and assayed for the radioactive polynucleotide formed by scintillation counting. The assay mixture contained 125 mM Tris-HCl (pH 8.2), 1 mM MgCl2, 125 mM KCl, 250 μM [^3 H]dTTP as the substrate and 23 nM Poly[A]-[dT],12 as the template.
Similar results were obtained with DNP-poly[A].

For a further assay, the target named is murine leukemia RT (Moloney murine leukemia virus, UniProt P03355). The note with it: cited from earlier work.

On to polyadenylic acid (5') [Poly[A]], for which the “IC50 of the RT, HIV-1181C” value in assay [1] was “no inhibitory effect”. Besides, the “IC50 of the RT, HIV-141,215” value in assay [2] was “no inhibitory effect”. Besides, the “IC50 of the RT, HIV-1 (wild)” value against HIV-1 RT (wild type) is on record as “no inhibitory effect”. Besides, at HIV-2 (wild type), the “IC50 of the RT, HIV-2 (wild)” value is on record as “no inhibitory effect”. `Nc1ncnc2c1ncn2[C@@H]1O[C@H](COP(=O)(O)OP(=O)(O)O)[C@@H](Oc2cc(F)c([N+](=O)[O-])cc2[N+](=O)[O-])[C@H]1O` [3'-O-(5-fluoro-2,4-dinitrophenyl) ADP ether]: the “molar concentration required to inhibit HIV RT” value at HIV RT was “million-fold higher molar concentration”.

Regarding poly(2-fluoroadenylic acid) [(fl^2 A)n], at murine leukemia RT, the IC50 was 0.04 µg/mL. As for `Nc1ncnc2c1ncn2[C@@H]1O[C@H](COP(=O)(O)OP(=O)(O)OP(=O)(O)O)[C@@H](Oc2cc(F)c([N+](=O)[O-])cc2[N+](=O)[O-])[C@H]1O` [the corresponding ATP ether, 3'-O-(5-fluoro-2,4-dinitrophenyl) ATP ether], the “molar concentration required to inhibit HIV RT” value on HIV RT was “million-fold higher molar concentration”.
